Data published in ChEMBL document CHEMBL1944561, “Discovery and SAR exploration of a novel series of imidazo[4,5-b]pyrazin-2-ones as potent and selective mTOR kinase inhibitors” (Bioorg Med Chem Lett, 2011).

Legend:
[1] = target: Serine/threonine-protein kinase mTOR (Homo sapiens, UniProt P42345); test: Inhibition of mTOR
[2] = Inhibition of AMPK assessed as activity remaining at 10 uM
[3] = target: Protein-tyrosine kinase 6 (Homo sapiens) (UniProt Q13882); test: Inhibition of BRK assessed as activity remaining at 10 uM
Chain of Protein-tyrosine kinase 6 (Homo sapiens) (Q13882 whole entry, looked up): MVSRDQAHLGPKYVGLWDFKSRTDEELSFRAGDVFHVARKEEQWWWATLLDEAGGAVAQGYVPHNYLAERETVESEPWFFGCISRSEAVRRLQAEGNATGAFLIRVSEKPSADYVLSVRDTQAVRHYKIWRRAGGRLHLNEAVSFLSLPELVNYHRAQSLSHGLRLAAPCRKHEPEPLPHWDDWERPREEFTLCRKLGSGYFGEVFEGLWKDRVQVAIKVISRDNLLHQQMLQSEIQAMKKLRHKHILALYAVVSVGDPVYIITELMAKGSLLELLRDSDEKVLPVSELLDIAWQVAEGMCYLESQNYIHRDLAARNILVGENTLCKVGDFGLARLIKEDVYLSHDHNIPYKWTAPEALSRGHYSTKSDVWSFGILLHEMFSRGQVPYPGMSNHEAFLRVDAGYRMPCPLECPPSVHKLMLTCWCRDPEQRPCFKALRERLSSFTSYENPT

[4] = target: Tyrosine-protein kinase BTK (Homo sapiens) (UniProt Q06187); test: Inhibition of BTK assessed as activity remaining at 10 uM
Chain of Tyrosine-protein kinase BTK (Homo sapiens) (Q06187 whole entry): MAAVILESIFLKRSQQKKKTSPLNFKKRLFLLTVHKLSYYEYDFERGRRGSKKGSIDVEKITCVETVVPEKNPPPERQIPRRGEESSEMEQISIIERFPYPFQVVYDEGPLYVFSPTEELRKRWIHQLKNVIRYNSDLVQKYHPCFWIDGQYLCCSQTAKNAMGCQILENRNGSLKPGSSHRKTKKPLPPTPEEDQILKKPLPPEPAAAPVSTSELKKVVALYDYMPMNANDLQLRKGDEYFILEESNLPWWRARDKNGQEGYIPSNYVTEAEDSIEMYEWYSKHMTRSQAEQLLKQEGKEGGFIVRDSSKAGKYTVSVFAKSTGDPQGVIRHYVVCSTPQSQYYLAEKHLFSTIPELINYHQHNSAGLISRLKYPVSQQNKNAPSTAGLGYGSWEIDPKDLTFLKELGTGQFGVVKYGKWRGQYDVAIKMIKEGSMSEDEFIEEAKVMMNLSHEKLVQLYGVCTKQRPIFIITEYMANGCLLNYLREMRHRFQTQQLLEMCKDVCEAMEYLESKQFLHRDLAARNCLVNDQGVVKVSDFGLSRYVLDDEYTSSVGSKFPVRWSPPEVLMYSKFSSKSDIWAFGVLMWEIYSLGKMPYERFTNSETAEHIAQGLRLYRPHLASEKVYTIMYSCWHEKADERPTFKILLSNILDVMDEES

[5] = target: Receptor-type tyrosine-protein kinase FLT3 (Homo sapiens) (UniProt P36888); test: Inhibition of Flt3 assessed as activity remaining at 10 uM
Chain of Receptor-type tyrosine-protein kinase FLT3 (Homo sapiens) (P36888 whole entry): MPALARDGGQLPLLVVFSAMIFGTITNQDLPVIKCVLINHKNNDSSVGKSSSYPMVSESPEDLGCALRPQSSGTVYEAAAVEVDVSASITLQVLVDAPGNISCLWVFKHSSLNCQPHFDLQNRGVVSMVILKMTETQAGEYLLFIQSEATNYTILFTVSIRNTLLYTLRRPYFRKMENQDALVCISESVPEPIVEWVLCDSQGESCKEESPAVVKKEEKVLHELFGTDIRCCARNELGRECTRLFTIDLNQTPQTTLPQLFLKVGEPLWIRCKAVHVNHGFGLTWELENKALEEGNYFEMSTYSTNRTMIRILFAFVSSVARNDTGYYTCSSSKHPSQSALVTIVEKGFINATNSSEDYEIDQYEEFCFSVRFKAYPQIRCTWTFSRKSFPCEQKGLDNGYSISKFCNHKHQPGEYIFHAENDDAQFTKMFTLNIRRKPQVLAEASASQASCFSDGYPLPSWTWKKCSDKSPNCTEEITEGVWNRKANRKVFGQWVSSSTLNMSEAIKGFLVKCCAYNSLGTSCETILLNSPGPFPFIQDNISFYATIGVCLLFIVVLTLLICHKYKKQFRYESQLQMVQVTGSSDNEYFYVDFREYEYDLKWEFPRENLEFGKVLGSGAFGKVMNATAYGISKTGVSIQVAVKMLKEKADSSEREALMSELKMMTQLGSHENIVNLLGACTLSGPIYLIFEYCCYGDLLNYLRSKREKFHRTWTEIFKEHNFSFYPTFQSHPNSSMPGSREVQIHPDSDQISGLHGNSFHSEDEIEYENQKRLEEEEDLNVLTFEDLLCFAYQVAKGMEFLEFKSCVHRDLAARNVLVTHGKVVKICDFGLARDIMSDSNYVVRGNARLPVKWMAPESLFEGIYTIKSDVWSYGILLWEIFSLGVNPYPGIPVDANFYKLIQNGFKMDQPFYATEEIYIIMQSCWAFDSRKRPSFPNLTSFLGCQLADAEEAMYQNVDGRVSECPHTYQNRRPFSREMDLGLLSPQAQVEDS

[6] = target: Glycogen synthase kinase-3 alpha (Homo sapiens, UniProt P49840); test: Inhibition of GSK3alpha assessed as activity remaining at 10 uM
Chain of Glycogen synthase kinase-3 alpha (P49840 2-483 limits assumed): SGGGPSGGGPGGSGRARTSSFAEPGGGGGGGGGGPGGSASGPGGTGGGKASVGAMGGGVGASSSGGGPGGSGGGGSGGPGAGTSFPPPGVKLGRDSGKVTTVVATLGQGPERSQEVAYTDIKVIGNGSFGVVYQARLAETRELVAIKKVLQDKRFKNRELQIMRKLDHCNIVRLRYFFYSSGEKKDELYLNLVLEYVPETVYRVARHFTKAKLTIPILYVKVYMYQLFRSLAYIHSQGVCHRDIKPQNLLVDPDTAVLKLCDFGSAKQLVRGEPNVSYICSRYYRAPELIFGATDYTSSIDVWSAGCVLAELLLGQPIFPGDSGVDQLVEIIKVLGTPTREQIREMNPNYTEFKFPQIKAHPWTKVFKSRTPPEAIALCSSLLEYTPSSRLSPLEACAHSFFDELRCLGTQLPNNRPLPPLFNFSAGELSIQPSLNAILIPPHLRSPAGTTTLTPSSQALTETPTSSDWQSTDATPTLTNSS

[7] = target: T1, Interleukin-1 receptor-associated kinase 4 (Homo sapiens) (UniProt Q9NWZ3); test: Inhibition of IRAK4 assessed as activity remaining at 10 uM
T1 sequence (whole entry): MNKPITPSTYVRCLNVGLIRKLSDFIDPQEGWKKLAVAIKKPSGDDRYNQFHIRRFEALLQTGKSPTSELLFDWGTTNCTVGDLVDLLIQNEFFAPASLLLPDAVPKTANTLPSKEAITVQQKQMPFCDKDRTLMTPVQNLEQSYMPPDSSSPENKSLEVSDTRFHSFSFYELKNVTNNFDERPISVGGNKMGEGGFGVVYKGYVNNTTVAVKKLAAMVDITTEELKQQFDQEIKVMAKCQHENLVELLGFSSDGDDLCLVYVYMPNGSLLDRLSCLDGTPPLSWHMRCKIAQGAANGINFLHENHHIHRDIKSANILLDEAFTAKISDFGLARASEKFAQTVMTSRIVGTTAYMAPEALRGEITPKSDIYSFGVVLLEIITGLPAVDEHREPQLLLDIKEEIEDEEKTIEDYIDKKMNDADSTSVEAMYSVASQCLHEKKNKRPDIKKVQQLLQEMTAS

[8] = target: T2, Tyrosine-protein kinase JAK3 (Homo sapiens) (UniProt P52333); test: Inhibition of JAK3 assessed as activity remaining at 10 uM
T2 sequence (whole entry): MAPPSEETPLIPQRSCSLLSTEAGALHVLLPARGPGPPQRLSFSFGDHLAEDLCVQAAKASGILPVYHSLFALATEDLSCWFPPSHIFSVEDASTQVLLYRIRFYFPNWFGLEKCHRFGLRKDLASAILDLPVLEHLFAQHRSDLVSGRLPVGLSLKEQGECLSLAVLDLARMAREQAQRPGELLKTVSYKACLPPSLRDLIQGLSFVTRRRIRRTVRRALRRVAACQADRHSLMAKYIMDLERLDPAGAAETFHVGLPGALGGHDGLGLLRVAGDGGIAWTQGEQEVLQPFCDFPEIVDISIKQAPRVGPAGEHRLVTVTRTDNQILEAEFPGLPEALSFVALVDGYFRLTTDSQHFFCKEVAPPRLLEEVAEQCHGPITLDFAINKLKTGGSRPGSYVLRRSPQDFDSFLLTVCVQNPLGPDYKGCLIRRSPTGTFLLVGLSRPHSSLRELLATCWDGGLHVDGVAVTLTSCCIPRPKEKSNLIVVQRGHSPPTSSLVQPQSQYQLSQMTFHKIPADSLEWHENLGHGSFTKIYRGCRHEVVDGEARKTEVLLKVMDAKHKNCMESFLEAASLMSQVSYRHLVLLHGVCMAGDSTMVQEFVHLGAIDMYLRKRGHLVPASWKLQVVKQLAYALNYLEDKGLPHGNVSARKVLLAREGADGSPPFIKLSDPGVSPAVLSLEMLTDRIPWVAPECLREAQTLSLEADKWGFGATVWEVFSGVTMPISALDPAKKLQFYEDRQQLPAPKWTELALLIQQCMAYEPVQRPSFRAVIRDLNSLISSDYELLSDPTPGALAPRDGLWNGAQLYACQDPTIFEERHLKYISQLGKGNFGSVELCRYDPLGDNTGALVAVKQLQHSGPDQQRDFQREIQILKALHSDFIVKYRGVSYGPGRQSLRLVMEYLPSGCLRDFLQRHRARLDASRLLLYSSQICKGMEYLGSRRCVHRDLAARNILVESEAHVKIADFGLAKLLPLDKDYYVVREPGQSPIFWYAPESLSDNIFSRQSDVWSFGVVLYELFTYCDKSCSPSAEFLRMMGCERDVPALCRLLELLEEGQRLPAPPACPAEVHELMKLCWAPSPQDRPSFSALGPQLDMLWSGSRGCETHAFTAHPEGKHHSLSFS

[9] = target: T3, Serine/threonine-protein kinase Nek2 (Homo sapiens) (UniProt P51955); test: Inhibition of NEK2 assessed as activity remaining at 10 uM
T3 sequence (whole entry): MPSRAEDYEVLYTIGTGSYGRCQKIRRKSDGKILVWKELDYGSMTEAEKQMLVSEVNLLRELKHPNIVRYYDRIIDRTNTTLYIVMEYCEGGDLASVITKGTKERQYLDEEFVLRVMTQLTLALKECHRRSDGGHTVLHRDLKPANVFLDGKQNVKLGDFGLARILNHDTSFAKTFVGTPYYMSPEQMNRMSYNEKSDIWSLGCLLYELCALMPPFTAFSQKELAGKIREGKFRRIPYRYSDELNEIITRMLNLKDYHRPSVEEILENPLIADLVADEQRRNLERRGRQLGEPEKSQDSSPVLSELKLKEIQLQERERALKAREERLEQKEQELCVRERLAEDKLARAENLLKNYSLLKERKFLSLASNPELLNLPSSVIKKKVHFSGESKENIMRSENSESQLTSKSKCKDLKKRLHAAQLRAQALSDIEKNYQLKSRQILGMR

[10] = Inhibition of p70S6K assessed as activity remaining at 10 uM
[11] = target: Serine/threonine-protein kinase pim-2 (Homo sapiens) (UniProt Q9P1W9); test: Inhibition of Pim2 assessed as activity remaining at 10 uM
Chain of Serine/threonine-protein kinase pim-2 (Homo sapiens) (Q9P1W9 whole entry, looked up): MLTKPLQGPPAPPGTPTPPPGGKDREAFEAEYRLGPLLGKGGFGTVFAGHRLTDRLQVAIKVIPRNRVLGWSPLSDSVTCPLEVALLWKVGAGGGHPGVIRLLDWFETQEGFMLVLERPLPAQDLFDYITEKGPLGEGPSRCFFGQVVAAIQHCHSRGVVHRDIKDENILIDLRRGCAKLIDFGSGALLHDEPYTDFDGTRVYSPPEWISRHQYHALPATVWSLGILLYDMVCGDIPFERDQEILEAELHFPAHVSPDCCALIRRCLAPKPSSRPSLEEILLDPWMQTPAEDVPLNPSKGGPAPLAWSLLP

[12] = target: Protein kinase C theta type (Homo sapiens) (UniProt Q04759); test: Inhibition of PKC-theta assessed as activity remaining at 10 uM
Chain of Protein kinase C theta type (Homo sapiens) (Q04759 whole entry, looked up): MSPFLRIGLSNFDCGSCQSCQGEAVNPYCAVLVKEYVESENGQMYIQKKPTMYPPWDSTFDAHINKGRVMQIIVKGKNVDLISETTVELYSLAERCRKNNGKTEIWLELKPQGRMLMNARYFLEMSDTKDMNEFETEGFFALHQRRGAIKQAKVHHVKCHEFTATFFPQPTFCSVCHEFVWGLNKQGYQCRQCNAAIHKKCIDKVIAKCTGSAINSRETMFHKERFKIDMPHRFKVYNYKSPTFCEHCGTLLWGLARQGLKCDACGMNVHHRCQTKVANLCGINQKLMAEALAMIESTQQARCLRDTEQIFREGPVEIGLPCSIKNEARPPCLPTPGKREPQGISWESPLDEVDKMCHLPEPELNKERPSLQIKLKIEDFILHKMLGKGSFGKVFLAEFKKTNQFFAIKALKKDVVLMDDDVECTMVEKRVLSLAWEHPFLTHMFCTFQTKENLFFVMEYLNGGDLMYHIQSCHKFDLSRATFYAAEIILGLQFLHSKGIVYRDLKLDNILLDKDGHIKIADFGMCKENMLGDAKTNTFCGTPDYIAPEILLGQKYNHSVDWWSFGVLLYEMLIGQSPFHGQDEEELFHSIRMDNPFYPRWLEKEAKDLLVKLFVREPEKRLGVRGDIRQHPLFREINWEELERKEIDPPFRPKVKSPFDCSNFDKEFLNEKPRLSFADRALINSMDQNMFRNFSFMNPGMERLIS

[13] = target: Serine/threonine-protein kinase PLK3 (Homo sapiens) (UniProt Q9H4B4); test: Inhibition of Plk3 assessed as activity remaining at 10 uM
Chain of Serine/threonine-protein kinase PLK3 (Homo sapiens) (Q9H4B4 whole entry, looked up): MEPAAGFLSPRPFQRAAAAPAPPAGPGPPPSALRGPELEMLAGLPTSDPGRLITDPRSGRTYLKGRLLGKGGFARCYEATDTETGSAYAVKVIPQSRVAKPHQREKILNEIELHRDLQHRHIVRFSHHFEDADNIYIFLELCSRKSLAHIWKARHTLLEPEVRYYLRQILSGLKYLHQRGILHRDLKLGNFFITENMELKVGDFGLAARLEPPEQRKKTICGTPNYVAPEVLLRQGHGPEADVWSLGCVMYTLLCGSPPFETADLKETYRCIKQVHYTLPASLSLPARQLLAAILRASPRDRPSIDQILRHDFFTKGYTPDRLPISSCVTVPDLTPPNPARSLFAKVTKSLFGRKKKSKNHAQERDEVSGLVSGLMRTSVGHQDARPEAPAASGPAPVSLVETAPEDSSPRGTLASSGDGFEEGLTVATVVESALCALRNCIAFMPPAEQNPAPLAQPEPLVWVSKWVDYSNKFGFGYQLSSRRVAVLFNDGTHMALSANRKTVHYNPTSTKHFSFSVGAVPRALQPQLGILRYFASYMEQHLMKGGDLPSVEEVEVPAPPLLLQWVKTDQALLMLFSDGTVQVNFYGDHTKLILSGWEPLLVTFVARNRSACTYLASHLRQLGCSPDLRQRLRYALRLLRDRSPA

IC50 [1]	Activity [2]	Activity [3]	Activity [4]	Activity [5]	Activity [6]	Activity [7]	Activity [8]	Activity [9]	Activity [10]	Activity [11]	Activity [12]	Activity [13]	SMILES
30 nM	89%	92%	84%	71%	16%	87%	101%	98%	99%	91%	80%	89%	CC(C)(O)c1ccc(-c2cnc3[nH]c(=O)n(CC4CCCCC4)c3n2)cc1
2 nM	101%	93%	90%	55%	39%	97%	96%	103%	96%	93%	82%	108%	O=c1[nH]c2ncc(-c3ccc(-c4nc[nH]n4)cc3)nc2n1CC1CCOCC1
21 nM	76%	82%	88%	46%	3%	112%	95%	98%	86%	101%	73%	94%	O=c1[nH]c2ncc(-c3ccc4[nH]cnc4c3)nc2n1CC1CCCCC1
